ChEMBL document CHEMBL4732175, “Design and Characterization of a Pyridone-Containing EZH2 Inhibitor Phosphate Prodrug” (J Med Chem, 2021)
Values after ≈ are worked out from the molar mass of the structure shown. Active and inactive are the calls of the source. No cut-off for these calls is given here.

Tests used:
[1] = Intrinsic clearance in human liver microsomes; format: ADME, Microsome; conditions: read-out: CLH
KARPAS-422 [2] = experiment: Inhibition of cell proliferation in human KARPAS-422 cells; format: functional, cell-based
[3] = Thermodynamic solubility in 0.5% MC/0.1% polysorbate 80 aqueous vehicle; format: physicochemical; conditions: read-out: Therm_solubility
[4] = Permeability in MDCK cells; format: ADME, cell-based, Canis lupus familiaris; conditions: dog, read-out: permeability
[5] = target: T1, Histone-lysine N-methyltransferase EZH2 (Homo sapiens, UniProt Q15910); experiment: Inhibition of wild type EZH2 (unknown origin)
KARPAS-422 [6] = experiment: Antitumor activity against human KARPAS-422 cells xenografted in mouse assessed as inhibition of tumor growth inhibition at 240 mg/kg/day dosed via SEDDS formulation for 30 days; conditions: KARPAS-422, 720 h, read-out: TGI
[7] = Drug level in mouse plasma at 120 mg/kg, po BID dosed using SEDDS formulation; format: ADME, organism-based; conditions: in vivo
[8] = Apparent solubility of the compound; format: physicochemical
[9] = Distribution coefficient, log D of compound; format: physicochemical; conditions: octanol/water
[10] = target: Histone-lysine N-methyltransferase EZH2 (Homo sapiens, UniProt Q15910, Y641N); experiment: Inhibition of wild type EZH2 Y641N mutant (unknown origin)
[11] = target: T1, Histone-lysine N-methyltransferase EZH2; experiment: Inhibition of wild type EZH2 in human KARPAS-422 cells assessed as effect on H3K27Me3 levels; format: cell-based
[12] = Chemical stability in simulated intestinal fluid at pH 6.8; format: physicochemical
[13] = Drug metabolism in mouse plasma assessed as 5,8-dichloro-2-((4,6-dimethyl-2-oxo-1,2-dihydropyridin-3-yl)methyl)-7-(3,5-dimethylisoxazol-4-yl)-3,4-dihydroisoquinolin-1(2H)-one formation at 30 to 120 mg/kg, po BID; format: ADME, organism-based; conditions: in vivo, dose 30-120 mg/kg
KARPAS-422 [14] = experiment: Antitumor activity against human KARPAS-422 cells xenografted in mouse assessed as inhibition of tumor growth inhibition at 240 mg/kg/day dosed via MC formulation for 30 days; format: functional; conditions: KARPAS-422, 720 h, time 30 day, read-out: TGI
KARPAS-422 [15] = experiment: Antitumor activity against human KARPAS-422 cells xenografted in mouse assessed as inhibition of tumor growth inhibition at 240 mg/kg/day dosed via SEDDS formulation for 30 days; format: functional, organism-based; conditions: time 30.0 day
[16] = Drug metabolism in rat plasma assessed as 5,8-dichloro-2-((4,6-dimethyl-2-oxo-1,2-dihydropyridin-3-yl)methyl)-7-(3,5-dimethylisoxazol-4-yl)-3,4-dihydroisoquinolin-1(2H)-one formation at 2000 mg/kg/day, po; format: ADME, organism-based; conditions: in vivo
KARPAS-422 [17] = experiment: Antitumor activity against human KARPAS-422 cells xenografted in mouse assessed as inhibition of tumor growth inhibition at 60 mg/kg/day dosed via MC formulation for 30 days; format: functional; conditions: KARPAS-422, 720 h, time 30 day, read-out: TGI
[18] = Chemical stability in simulated gastric fluid at pH 1.2; format: physicochemical
[19] = Drug level in mouse plasma at 30 to 120 mg/kg, po BID; format: ADME, organism-based; conditions: in vivo, dose 30-120 mg/kg
[20] = Solubility in 0.5% MC formulation contained 1 equivalent of NaOH; format: physicochemical; conditions: 0.5% MC formulation containing 1 equivalent of NaOH
KARPAS-422 [21] = experiment: Antitumor activity against human KARPAS-422 cells xenografted in mouse assessed as inhibition of tumor growth inhibition at 147 mg/kg/day dosed via MC formulation for 30 days and measured up to 40 days after dosing cessation; format: functional, organism-based; conditions: time 30.0 day
KARPAS-422 [22] = experiment: Antitumor activity against human KARPAS-422 cells xenografted in mouse assessed as inhibition of tumor growth inhibition at 120 mg/kg/day dosed via MC formulation for 30 days; format: functional; conditions: KARPAS-422, 720 h, time 30 day, read-out: TGI
KARPAS-422 [23] = experiment: Antitumor activity against human KARPAS-422 cells xenografted in mouse assessed as inhibition of tumor growth inhibition at 60 to 240 mg/kg/day dosed via MC formulation for 30 days; format: functional, organism-based; conditions: dose 60-240 mg/kg/day, time 30.0 day
[24] = Drug level in rat plasma at 2000 mg/kg/day, po; format: ADME, organism-based; conditions: in vivo

T1 sequence (Q15910 whole entry): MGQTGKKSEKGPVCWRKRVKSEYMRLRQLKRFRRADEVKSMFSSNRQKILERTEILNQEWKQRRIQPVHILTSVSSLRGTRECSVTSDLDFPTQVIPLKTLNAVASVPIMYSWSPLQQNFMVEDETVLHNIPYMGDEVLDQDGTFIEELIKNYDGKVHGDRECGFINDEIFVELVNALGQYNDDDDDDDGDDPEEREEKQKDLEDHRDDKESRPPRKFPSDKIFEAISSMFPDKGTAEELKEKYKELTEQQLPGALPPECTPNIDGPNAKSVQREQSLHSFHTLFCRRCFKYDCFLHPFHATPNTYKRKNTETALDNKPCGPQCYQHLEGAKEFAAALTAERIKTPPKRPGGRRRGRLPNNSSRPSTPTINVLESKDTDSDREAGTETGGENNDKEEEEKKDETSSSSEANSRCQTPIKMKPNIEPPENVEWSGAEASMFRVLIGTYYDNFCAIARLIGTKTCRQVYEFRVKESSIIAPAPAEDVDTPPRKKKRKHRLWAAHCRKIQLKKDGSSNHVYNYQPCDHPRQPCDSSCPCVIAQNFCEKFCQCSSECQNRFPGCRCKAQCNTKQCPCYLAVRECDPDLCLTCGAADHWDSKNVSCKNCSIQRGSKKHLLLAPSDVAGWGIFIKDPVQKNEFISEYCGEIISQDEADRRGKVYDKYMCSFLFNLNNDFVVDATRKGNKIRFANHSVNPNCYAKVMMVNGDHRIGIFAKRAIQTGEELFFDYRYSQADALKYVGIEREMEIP
Chain of Histone-lysine N-methyltransferase EZH2 (Homo sapiens, UniProt Q15910, Y641N) (Q15910 whole entry Y641N): as the sequence (Q15910 whole entry) above, with Y641N counted along it

Work on `Cc1cc(C)c(CN2CCc3c(Br)cc(-c4c(C)nnn4C)c(Cl)c3C2=O)c(=O)[nH]1` yielded a microsomal CLint [1] of 27.8 µL/min/mg, an IC50 (KARPAS-422 [2]) of 36 nM and a solubility thermodynamic [3] of 41 µM (≈ 20.1 µg/mL). The Papp [4] was 9 ×10⁻⁶ cm/s, the Ki [5] was 2 nM and the inhibition in vivo at 240 mg/kg/day (KARPAS-422 [6]) was 98%. For the same molecule, the Drug uptake [7] was “Active”, the solubility [8] was 338 µM (≈ 166 µg/mL) and the logD [9] was 2.4. The Ki [10] was 7 nM and the IC50 [11] was 30 nM.

In the case of `Cc1cc(C)n(COP(=O)(O)O)c(=O)c1CN1CCc2c(Br)cc(-c3c(C)nnn3C)c(Cl)c2C1=O`, the Stabilty [12] is reported as 8 h, the Drug metabolism [13] is reported as “Dose-dependent effect” and the inhibition in vivo at 240 mg/kg/day (KARPAS-422 [14]) is reported as 121%. The TGI (KARPAS-422 [15]) was “Active”, the Drug metabolism [16] was “Metabolite_Detected” and the inhibition in vivo at 60 mg/kg/day (KARPAS-422 [17]) was 37%. For the same molecule, the Stabilty [18] was 8 h, the Cp [19] was < 1 ng/mL and the solubility [20] was 21600 µM. The TGI (KARPAS-422 [21]) was “Active”, the inhibition in vivo at 120 mg/kg/day (KARPAS-422 [22]) was 59% and the TGI (KARPAS-422 [23]) was “Dose-dependent effect”. The Drug uptake [24] was “Not Active”.

With `Cc1cc(C)c(CN2CCc3c(Cl)cc(-c4c(C)noc4C)c(Cl)c3C2=O)c(=O)[nH]1` the Ki [5] was 1 nM, the solubility [8] was 140 µM (≈ 62.5 µg/mL) and the logD [9] was 3.1.
